Like-named read-outs stand apart in the source and are kept apart here.
Legend:
[1] = biological target: T1, human recombinant M1 expressed in CHO cells (Homo sapiens, UniProt P11229); conditions: reference compounds; read-out: Ki of reference compounds in the M1 binding assay; cited from earlier work
T1 construct: purchased PerkinElmer, Inc., Wellesley, Mass; host or cells: CHO cells
T1 sequence (P11229 1-460): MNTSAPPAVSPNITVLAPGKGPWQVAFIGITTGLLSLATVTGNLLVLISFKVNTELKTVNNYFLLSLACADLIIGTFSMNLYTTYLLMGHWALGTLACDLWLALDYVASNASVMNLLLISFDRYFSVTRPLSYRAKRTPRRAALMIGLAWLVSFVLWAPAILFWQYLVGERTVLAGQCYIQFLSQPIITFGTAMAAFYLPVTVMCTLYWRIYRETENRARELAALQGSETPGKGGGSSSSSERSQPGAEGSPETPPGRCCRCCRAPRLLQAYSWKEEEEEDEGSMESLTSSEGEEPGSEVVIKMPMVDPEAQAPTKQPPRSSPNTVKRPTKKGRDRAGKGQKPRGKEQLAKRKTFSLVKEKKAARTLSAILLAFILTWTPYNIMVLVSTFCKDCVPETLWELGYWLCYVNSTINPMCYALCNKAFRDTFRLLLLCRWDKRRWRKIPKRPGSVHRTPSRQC

[2] = biological target: T2, human recombinant M2 expressed in CHO cells (Homo sapiens, UniProt P08172); experiment: M2 muscarinic receptor binding assay; conditions: Table 7A, M1 M2 M3
T2 construct: purchased PerkinElmer, Inc., Wellesley, Mass; host or cells: CHO cells
T2 sequence (P08172 1-466): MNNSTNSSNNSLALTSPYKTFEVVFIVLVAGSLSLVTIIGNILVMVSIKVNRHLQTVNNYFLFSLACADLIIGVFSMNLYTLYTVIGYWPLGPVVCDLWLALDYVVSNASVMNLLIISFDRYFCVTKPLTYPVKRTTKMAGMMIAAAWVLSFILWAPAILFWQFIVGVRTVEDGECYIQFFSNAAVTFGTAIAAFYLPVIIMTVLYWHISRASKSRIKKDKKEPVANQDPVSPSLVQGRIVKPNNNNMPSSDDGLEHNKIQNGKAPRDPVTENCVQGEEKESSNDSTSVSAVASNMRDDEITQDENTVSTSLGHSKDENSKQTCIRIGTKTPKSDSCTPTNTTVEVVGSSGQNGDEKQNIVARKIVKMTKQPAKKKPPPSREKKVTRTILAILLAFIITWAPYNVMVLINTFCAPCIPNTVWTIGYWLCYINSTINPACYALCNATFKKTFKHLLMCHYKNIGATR

[3] = system: adult, male Wistar rats; experiment: Sleep-wakefulness monitoring (SCORE-2000, EEG/EMG) in rats; type: in vivo, rat; conditions: minutes; for LONGEST UNINTERRUPTED SLEEP BOUT 10 mg/kg / NREM CUMULATION 10 mg/kg: oral bolus at CT-18, 10 mg/kg; for LONGEST UNINTERRUPTED SLEEP BOUT 30 mg/kg / NREM CUMULATION 30 mg/kg: oral bolus at CT-18, 30 mg/kg
Description: Sleep-wakefulness, locomotor activity and body temperature are monitored in male Wistar rats treated with a test compound (i.e., olanzapine analog) initially at a concentration of 10 mg/kg. Higher and lower doses are assayed for select compounds (e.g., as high as 45 mg/kg, and as low as necessary to establish a no-effect dose). Treatments are administered at CT-18, the peak of the activity dominated period (6 hours after lights-off), and produced soporific (sleep-inducing) effects characterized by increased non-REM sleep time, increased sleep continuity, but without evidence of REM sleep inhibition or rebound insomnia.
Sleep-wakefulness, locomotor activity and body temperature were monitored in vivo with various compounds of the invention. Adult, male Wistar rats (250 g at time of surgery, Charles River Laboratories, Wilmington Mass.) were anesthetized (2% isoflourane in medical grade oxygen) and surgically prepared with a cranial implant to permit chronic electro-encephalogram (EEG) and electromyogram (EMG) recording. Body temperature and locomotor activity were monitored via a miniature transmitter (Mini-Mitter, Bend, Oreg.) surgically placed in the abdomen. The cranial implant consisted of stainless steel screws (two frontal (+3.2 AP from bregma, ±2.0 ML) and two occipital (−6.9 AP, ±5.5 ML)) for EEG recording. Two Teflon®-coated stainless steel wires were positioned under the nuchal trapezoid muscles for EMG recording. All leads were soldered to a miniature connector prior to surgery, and gas sterilized in ethylene oxide. The implant assembly was affixed to the skull with dental acrylic. A minimum of three weeks was allowed for surgical recovery.
Each rat was permanently housed in its own individual recording cage located within separate, ventilated compartments of custom-designed stainless steel cabinets. Each cage was enhanced with a filter-top riser and low-torque swivel-commutator. Food and water were available ad libitum. A 24-hr light-dark cycle (12 hours light, 12 hours dark) was maintained throughout the study. Animals were undisturbed for at least 48 hours before and after treatments.
Sleep and wakefulness were determined using “SCORE-2000™” (Hypnion, Worcester, Mass.)—an internet-based sleep-wake and physiological monitoring system. The system monitored amplified EEG (bandpass 1-30 Hz), integrated EMG (bandpass 10-100 Hz), body temperature and non-specific locomotor activity (LMA) via telemetry, and drinking activity, continuously and simultaneously. Arousal states were classified on-line as non-REM (NREM) sleep, REM sleep, wake, or theta-dominated wake every 10 seconds. Total drinking and locomotor activity counts, and body temperature were quantitiated and recorded each minute, using EEG feature extraction and pattern-matching algorithms. […] The classification algorithm used individually-taught EEG-arousal-state templates, plus EMG criteria to differentiate REM sleep from theta-dominated wakefulness, plus behavior-dependent contextual rules (e.g., if the animal was drinking, it is awake). Drinking and locomotor activity intensity (LMA) were recorded every 10 seconds, while body temperature was recorded each minute. Locomotor activity was detected by a telemetry receiver (Mini-Mitter) beneath the cage. Telemetry measures (LMA and body temperature) were not part of the scoring algorithm; thus, sleep-scoring and telemetry data were independent measures.
Compounds were administered at CT-18, the peak of the activity-dominated period, sufficient time was allowed to view the time course of the treatment effect before lights-on (6 hours post-treatment). Compounds were suspended in sterile 0.25% or 0.5% methylcellulose (1-2 ml/kg). Treatments were administered orally as a bolus.
A parallel group study design was employed. […]

[4] = biological target: T1, human recombinant M1 expressed in CHO cells; experiment: M1 muscarinic receptor binding assay; conditions: Table 7A, first line of column M1 M2 M3
[5] = biological target: T3, histamine H1 receptor (bovine) (Bos taurus, UniProt P30546); experiment: Histamine H1 binding assay, bovine cerebellar membranes, [3H]pyrilamine; conditions: Table 7A; Ki in nM
T3 construct: the receptors were obtained from bovine cerebellar membrane tissue; from tissue; host or cells: bovine cerebellar membranes

[6] = biological target: T4, human recombinant M3 expressed in CHO cells (Homo sapiens, UniProt P20309); experiment: M3 muscarinic receptor binding assay; conditions: Table 7A, third line of column M1 M2 M3
T4 construct: purchased PerkinElmer, Inc., Wellesley, Mass; host or cells: CHO cells

[7] = biological target: D2 (h) (Homo sapiens, UniProt P14416); experiment: Dopamine D2 binding assay; conditions: Table 7A; unit inferred
[8] = biological target: 5HT2a (rat) (Rattus norvegicus, UniProt P14842); experiment: 5HT2a (rat) binding assay; conditions: Table 7A; unit inferred
[9] = biological target: D1 (h) (Homo sapiens, UniProt P21728); experiment: Dopamine D1 (human recombinant) binding assay; conditions: Table 7A; unit inferred
Description: Dopamine, D1 (human recombinant) binding assay was performed according to published procedures. See, e.g., Jarvie, et al. J. Recept Res., 13(1-4): 573-90 (1993); and Billard, et al. Life Sciences, 35(18): 1885-93 (1984), with modifications

[10] = biological target: T5, 5HT2a (hctx) (Homo sapiens, UniProt P28223); experiment: 5HT2a (hctx) binding assay; conditions: Table 7B; unit inferred
T5 construct: (hctx); from tissue; host or cells: human cortex (my reading of 'hctx')

[11] = biological target: T6, H1 (hr) (Homo sapiens, UniProt P35367); experiment: H1 (hr) Novascreen binding assay; conditions: Table 7A; Ki in nM
T6 construct: Novascreen, MDS, Cerep (assay providers)
Description: Binding assays were performed using various sleep-inducing agents and derivatives selected from those listed in Table 1 in competitive binding assays with known standards for the H1 histamine receptor, and the M1, M2, and M3 muscarinic receptors, alpha 1 and alpha 2 receptors, D1 and D2 receptors, 5HT2a, 5HT2b, 5HT2c, 5HT2c, and 5HT7 receptors.
The histamine H1 assays are described in Chang, et al., Heterogeneity of Histamine H1-Receptors: Species Variation in [^3H]Mepyramine Binding of Brain Membranes. Journal of Neurochemistry. 32: 1653-1663 (1979); Martinez-Mir, M. I., Pollard, H., Moreau, J., et al. Three Histamine Receptors (H1, H2, and H3) Visualized in the Brain of Human and Non-Human Primates. Brain Res. 526: 322-327 (1990); Haaksma, E. E. J., Leurs, R. and Timmerman, H. Histamine Receptors: Subclasses and Specific Ligands. Pharmac. Ther. 47: 73-104 (1990). The muscarinic assays are described in Buckley, N. J., Bonner, T. I., Buckley, C. M., and Brann, M. R. Antagonist Binding Properties of Five Cloned Muscarinic Receptors Expressed in CHO-K1 Cells. Mol. Pharmacol. 35: 469-476 (1989). The assays were performed according to the preceding articles, with the following modifications. Chemical reagents in the following were obtained from Sigma, St. Louis, Mo.

[12] = biological target: 5HT2b (h) (Homo sapiens, UniProt P41595); experiment: 5HT2b (h) binding assay; conditions: Table 7B; unit inferred
Chain of 5HT2b (h) (P41595 whole entry): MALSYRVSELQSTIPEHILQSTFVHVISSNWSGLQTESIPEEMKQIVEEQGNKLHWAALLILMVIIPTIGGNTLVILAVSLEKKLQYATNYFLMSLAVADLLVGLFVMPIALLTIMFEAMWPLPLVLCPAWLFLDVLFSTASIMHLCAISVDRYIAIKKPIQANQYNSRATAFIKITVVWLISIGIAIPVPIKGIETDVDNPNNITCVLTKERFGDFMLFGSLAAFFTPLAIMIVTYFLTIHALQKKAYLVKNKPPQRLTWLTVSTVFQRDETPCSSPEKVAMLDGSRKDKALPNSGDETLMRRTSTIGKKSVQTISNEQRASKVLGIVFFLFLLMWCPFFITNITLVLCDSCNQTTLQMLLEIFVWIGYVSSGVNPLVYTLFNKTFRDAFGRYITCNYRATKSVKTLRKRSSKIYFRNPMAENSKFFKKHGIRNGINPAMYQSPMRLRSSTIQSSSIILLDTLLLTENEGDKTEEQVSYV

T5 sequence (P28223 whole entry): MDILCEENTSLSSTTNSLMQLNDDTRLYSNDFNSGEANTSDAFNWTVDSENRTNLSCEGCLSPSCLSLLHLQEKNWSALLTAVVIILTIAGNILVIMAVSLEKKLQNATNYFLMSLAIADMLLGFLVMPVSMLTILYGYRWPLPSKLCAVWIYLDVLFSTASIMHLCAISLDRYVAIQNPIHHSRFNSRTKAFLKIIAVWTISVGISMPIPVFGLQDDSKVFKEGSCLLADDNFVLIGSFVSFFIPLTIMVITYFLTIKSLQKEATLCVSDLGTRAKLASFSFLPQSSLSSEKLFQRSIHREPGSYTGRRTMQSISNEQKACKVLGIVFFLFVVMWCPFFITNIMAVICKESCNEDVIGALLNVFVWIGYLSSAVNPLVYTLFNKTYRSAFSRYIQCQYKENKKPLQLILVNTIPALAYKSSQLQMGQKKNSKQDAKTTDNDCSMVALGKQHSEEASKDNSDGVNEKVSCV
T3 sequence (P30546 whole entry): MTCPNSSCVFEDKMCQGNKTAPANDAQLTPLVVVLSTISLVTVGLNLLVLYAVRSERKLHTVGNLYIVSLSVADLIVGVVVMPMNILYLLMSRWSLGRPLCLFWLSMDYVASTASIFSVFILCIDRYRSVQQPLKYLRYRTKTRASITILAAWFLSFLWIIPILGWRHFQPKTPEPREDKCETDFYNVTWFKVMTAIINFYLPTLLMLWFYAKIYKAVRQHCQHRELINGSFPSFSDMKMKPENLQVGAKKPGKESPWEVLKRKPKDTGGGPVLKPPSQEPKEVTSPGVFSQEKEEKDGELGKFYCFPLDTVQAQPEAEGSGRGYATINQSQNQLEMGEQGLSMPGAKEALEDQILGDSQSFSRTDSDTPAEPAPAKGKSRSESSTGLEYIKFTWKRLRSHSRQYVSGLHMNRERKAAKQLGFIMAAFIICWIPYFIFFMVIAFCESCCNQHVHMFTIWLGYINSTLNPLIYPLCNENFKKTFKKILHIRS
T4 sequence (P20309 whole entry): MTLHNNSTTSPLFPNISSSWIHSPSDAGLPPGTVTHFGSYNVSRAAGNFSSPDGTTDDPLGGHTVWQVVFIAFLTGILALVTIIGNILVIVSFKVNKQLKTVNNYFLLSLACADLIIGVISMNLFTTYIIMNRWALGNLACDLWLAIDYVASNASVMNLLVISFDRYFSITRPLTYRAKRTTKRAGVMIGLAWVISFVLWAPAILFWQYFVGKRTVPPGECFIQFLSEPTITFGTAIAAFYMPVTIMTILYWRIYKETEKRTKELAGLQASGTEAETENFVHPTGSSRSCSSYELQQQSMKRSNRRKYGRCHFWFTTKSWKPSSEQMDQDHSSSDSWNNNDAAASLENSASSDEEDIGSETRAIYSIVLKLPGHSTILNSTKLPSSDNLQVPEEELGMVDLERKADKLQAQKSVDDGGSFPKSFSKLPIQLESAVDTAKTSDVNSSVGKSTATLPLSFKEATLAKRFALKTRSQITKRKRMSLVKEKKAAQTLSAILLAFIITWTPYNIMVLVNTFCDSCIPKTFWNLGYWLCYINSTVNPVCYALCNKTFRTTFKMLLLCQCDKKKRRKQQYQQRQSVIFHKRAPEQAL
Chain of D2 (h) (P14416 whole entry): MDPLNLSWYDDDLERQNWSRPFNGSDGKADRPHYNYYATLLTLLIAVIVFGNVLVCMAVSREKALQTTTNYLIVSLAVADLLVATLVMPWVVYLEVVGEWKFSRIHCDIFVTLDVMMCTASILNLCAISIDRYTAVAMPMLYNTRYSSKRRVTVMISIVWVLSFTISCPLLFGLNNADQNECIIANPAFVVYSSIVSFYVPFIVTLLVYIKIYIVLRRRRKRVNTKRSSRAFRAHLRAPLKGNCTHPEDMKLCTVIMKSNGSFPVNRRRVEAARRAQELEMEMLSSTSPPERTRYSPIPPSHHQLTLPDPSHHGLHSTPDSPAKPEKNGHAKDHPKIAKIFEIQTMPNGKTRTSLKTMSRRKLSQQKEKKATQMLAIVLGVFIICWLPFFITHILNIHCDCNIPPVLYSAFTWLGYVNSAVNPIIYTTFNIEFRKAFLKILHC
T6 sequence (P35367 whole entry): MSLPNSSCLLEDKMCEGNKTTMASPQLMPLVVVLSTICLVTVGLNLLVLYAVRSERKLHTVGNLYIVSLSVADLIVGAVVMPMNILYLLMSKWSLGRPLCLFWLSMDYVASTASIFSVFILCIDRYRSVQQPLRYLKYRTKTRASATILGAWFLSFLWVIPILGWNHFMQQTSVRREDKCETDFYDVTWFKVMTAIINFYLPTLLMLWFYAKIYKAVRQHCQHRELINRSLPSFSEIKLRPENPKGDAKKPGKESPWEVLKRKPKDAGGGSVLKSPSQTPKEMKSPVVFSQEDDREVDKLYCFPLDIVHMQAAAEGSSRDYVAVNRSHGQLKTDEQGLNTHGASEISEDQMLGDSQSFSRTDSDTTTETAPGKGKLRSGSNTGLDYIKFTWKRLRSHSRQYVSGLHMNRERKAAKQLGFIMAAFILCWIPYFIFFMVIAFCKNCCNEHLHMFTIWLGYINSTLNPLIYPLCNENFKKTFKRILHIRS
Chain of 5HT2a (rat) (P14842 whole entry): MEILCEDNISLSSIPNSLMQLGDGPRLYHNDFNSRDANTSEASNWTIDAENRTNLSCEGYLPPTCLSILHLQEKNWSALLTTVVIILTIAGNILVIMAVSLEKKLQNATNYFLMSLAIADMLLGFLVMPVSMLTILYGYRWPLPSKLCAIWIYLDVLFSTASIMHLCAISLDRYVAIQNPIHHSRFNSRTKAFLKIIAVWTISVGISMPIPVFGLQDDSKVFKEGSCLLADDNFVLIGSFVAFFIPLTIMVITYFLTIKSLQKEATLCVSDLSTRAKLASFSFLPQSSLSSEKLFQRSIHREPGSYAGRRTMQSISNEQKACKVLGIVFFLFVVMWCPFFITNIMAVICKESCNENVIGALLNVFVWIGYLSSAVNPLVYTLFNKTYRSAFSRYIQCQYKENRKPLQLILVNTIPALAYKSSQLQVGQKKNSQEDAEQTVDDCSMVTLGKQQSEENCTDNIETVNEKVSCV
Chain of D1 (h) (P21728 whole entry): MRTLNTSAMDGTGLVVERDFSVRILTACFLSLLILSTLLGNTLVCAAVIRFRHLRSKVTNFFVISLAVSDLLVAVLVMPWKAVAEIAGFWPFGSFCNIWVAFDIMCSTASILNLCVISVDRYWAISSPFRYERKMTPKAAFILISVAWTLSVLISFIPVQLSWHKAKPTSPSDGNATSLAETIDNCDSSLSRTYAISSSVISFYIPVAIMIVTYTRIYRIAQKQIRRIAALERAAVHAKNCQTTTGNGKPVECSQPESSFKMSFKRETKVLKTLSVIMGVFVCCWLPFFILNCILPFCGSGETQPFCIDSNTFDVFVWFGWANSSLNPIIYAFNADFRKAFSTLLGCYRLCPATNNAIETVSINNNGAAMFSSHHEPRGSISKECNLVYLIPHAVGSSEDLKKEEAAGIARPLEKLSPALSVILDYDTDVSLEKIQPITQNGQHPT

SMILES | LONGEST UNINTERRUPTED SLEEP BOUT 10 mg/kg [3] [min] | NREM CUMULATION 10 mg/kg [3] [min] | LONGEST UNINTERRUPTED SLEEP BOUT 30 mg/kg [3] [min] | NREM CUMULATION 30 mg/kg [3] [min] | further results
C[N+]1(C)CCC(OC(=O)C(c2ccccc2)c2ccccc2)CC1 [4-DAMP methiodide] | – | – | – | – | Ki [1]: 0.27 nM
CC(C)(CN1CCN(C2=Nc3ccccc3Nc3sccc32)CC1)C(=O)O [Compound 1] | -7.0 ± 2.4 | 6 ± 6 | 4.1 ± 2.1 | 12 ± 5 | Ki [2]: > 10000 nM; Ki [4]: > 10000 nM; Ki [5]: 2310 nM; Ki [6]: > 10000 nM
Cc1ccc2c(c1)N=C(N1CCN(CC(C)(C)C(=O)O)CC1)c1cc(C)sc1N2 [Compound 52] | 5.9 ± 2.3 | 25 ± 5 | – | – | –
Cc1cc2c(s1)Nc1ccccc1N=C2N1CCN(CC(C)(C)C(=O)NS(C)(=O)=O)CC1 [Compound 89] | 5.7 ± 1.8 | 14 ± 7 | 13.6 ± 2.7 | 37 ± 6 | Ki [7]: 927 nM; Ki [2]: > 10000 nM; Ki [4]: > 10000 nM; Ki [5]: 139 nM; Ki [8]: 29.5 nM; Ki [9]: 6500 nM; Ki [6]: > 10000 nM; Ki [10]: 1000 nM
Cc1cc2c(s1)Nc1ccccc1N=C2N1CCN(CCCC(=O)O)CC1 [Compound 93] | -3.0 ± 2.8 | 16 ± 6 | 2.0 ± 1.5 | 10 ± 5 | –
Cc1ccc2c(c1)Nc1sc(C)cc1C(N1CCN(CC(C)(C)C(=O)O)CC1)=N2 [Compound 95] | 15.8 ± 5.2 | 43 ± 5 | – | – | Ki [7]: 970 nM; Ki [11]: 200 nM; Ki [12]: 240 nM; Ki [10]: 28 nM
Cc1ccc2c(c1)Nc1sc(C)cc1C(N1CCN(CCC(=O)O)CC1)=N2 [Compound 97] | -3.6 ± 2.6 | 7 ± 3 | – | – | –
COc1ccc2c(c1)Nc1sc(C)cc1C(N1CCN(CC(C)(C)C(=O)O)CC1)=N2 [Compound 98] | -6.2 ± 2.7 | 12 ± 7 | – | – | –
Cc1cc2c(s1)Nc1cc(F)ccc1N=C2N1CCN(CC(C)(C)C(=O)O)CC1 [Compound 101] | 5.9 ± 2.4 | 51 ± 8 | – | – | –

From patent US7807828B2, “Olanzapine analogs and methods of use thereof” (Hypnion, Inc., priority 2005, dated 2010)
